In article PMC9082340 (ACS applied materials & interfaces, 2020):
Ends that are not written are not given here.

How the values were obtained:
[1] = system: HEK-293 T cells expressing PH-LgBiT; assay: NanoLuc; assay type: cell-based; details: PyB 25–200 μM in PBS 5 min before 1 μM YARA-HiBiT or R6-HiBiT (Figure S29)
[2] = previous literature reports; cited from earlier work
HEK-293 T cells = assay type: cell-based; details: pyrene butyrate treatment
[3] = system: A7r5 rat aortic vascular smooth muscle cells; assay: Cell viability; assay type: cell-based; details: 10 μM peptide, A7r5 cells (Figure S19-G)

Row | Molecule | Increase in activity over peptide alone with pyrene butyrate [1] | Activity enhancement reported for pyrene butyrate [2] | Cell viability at 100 μM (29 μg/mL) (HEK-293 T cells) | Cell viability at 200 μM (58 μg/mL) (HEK-293 T cells) | Toxicity of peptide dose [3]
1 | O=C(O)CCCc1ccc2ccc3cccc4ccc1c2c34 [pyrene butyrate, 1-pyrenebutyric acid] | ≤ 1.3 fold | 1.5–5 fold | 65% | 57% | –
2 | YARAAARQARAKALARQLGVAA [YARA-MK2i] | – | – | – | – | nontoxic
